Assays:
[1] = system: Non-small lung cancer ABC-1 cells; experiment: Cellular proliferation assay (CellTiter-Glo); type: cell-based; conditions: Homo sapiens, 72 h; ABC-1 cells, 3 days of compound treatment; read-out: ABC-1 IC50
Experimental: Cellular Proliferation Assay to Determine Compound Inhibition of Cancer Cell Growth
Viable cells were measured after 3 days of compound treatment using the CellTiter-Glo assay (Promega, G7570). Assay was performed following the manufacture protocol.

[2] = system: Axin2 protein in SW480 cells; experiment: Cellular ELISA assay of Axin2 protein stabilization; type: cell-based; conditions: Homo sapiens, 24 hrs, read-out: Axin AC50
How it was run: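 SW480 colorectal cells seeded overnight, treated with compound, then lysed. Axin2 in lysates measured by sandwich ELISA: anti-Axin2 capture antibody coated at 1 μg/ml (pH 9.2), lysate 2 h at room temperature, biotinylated anti-Axin2 detection 2 h, then streptavidin-HRP 30 min.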

[3] = molecular target: Human PARP1 (Homo sapiens (Human), UniProt P09874); experiment: PARP1 autoparsylation assay (LC/MS detection of nicotinamide); type: biochemical; conditions: 20 nM enzyme, 250 μM β-NAD+, 60 min
Experimental: (§1) The autoparsylation activity of the TNKS 1/2 or PARP1/2 enzymes was measured by the liquid chromatography-mass spectrometry (LC/MS) detection of nicotinamide as readout. Compound activity in inhibiting the TNKS and PARP autoparsylation was evaluated by IC50 measurements.

[4] = system: Wnt ligand-induced signaling in HEK293 cells; experiment: Wnt-responsive Super-TOpFlash (STF) luciferase reporter gene assay; type: cell-based; conditions: Homo sapiens, Wnt3A condition medium
How it was run: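 HEK293 cells (8000/well, 5% FBS medium) treated with 20% mouse L-cell Wnt3A conditioned medium plus compounds in 10-point serial dilution; luciferase read next day. Inhibition calculated relative to Wnt3A-induced signal without compound and background without Wnt3A CM or compound.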

[5] = molecular target: PARP2 (Mus musculus (Mouse), UniProt O88554); experiment: PARP2 autoparsylation assay (LC/MS detection of nicotinamide); type: biochemical; conditions: 20 nM enzyme, 250 μM β-NAD+, 60 min
Experimental: as §1

[6] = molecular target: human tankyrase 1 PARP catalytic domain, TNKS1P (Homo sapiens (Human), UniProt O95271); experiment: TNKS1 autoparsylation assay (LC/MS detection of nicotinamide); conditions: read-out: TNKS1 AP IC50, 20 nM enzyme, 250 μM β-NAD+, 60 min
Experimental: Biochemical Assay to Determine Compound Inhibition of TNKS Enzyme Activity
The autoparsylation activity of the TNKS 1/2 or PARP1/2 enzymes was measured by the liquid chromatography-mass spectrometry (LC/MS) detection of nicotinamide as readout. Compound activity in inhibiting the TNKS and PARP autoparsylation was evaluated by IC50 measurements. […] For the background control wells, 10 μL of the 5× quenching solution per well was added prior to the addition of β-NAD^+. The % Inhibition was calculated as: (Control−Sample)/(Control−Background)*100.

[7] = molecular target: tankyrase 2 protein PARP domain, TNKS2P (Homo sapiens (Human), UniProt Q9H2K2); experiment: TNKS2 autoparsylation assay (LC/MS detection of nicotinamide); conditions: read-out: TNKS2 AP IC50, 20 nM enzyme, 250 μM β-NAD+, 60 min
Chain of tankyrase 2 protein PARP domain, TNKS2P (Q9H2K2 959-1164): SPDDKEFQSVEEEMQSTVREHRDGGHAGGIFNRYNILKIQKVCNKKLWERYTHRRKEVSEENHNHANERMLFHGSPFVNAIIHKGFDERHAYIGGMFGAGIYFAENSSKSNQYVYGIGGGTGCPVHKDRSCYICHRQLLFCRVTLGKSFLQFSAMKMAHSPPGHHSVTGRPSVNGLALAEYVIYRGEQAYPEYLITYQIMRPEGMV

Chain of PARP2 (O88554 whole entry): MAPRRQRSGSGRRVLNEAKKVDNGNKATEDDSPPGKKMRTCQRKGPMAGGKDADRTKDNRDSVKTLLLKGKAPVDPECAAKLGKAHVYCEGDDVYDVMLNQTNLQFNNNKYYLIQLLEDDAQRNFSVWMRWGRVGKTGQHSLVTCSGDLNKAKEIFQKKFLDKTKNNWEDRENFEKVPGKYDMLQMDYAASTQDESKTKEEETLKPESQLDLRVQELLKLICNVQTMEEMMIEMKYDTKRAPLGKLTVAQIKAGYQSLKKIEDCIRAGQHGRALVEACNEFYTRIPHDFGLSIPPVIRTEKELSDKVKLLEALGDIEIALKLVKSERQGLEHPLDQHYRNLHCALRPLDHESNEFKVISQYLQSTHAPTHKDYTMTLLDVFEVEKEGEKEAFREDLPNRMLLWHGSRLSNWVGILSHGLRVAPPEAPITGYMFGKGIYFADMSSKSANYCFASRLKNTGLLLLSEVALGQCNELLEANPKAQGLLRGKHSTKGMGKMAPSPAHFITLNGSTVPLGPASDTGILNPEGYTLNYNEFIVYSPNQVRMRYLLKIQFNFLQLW
Chain of Human PARP1 (P09874 whole entry): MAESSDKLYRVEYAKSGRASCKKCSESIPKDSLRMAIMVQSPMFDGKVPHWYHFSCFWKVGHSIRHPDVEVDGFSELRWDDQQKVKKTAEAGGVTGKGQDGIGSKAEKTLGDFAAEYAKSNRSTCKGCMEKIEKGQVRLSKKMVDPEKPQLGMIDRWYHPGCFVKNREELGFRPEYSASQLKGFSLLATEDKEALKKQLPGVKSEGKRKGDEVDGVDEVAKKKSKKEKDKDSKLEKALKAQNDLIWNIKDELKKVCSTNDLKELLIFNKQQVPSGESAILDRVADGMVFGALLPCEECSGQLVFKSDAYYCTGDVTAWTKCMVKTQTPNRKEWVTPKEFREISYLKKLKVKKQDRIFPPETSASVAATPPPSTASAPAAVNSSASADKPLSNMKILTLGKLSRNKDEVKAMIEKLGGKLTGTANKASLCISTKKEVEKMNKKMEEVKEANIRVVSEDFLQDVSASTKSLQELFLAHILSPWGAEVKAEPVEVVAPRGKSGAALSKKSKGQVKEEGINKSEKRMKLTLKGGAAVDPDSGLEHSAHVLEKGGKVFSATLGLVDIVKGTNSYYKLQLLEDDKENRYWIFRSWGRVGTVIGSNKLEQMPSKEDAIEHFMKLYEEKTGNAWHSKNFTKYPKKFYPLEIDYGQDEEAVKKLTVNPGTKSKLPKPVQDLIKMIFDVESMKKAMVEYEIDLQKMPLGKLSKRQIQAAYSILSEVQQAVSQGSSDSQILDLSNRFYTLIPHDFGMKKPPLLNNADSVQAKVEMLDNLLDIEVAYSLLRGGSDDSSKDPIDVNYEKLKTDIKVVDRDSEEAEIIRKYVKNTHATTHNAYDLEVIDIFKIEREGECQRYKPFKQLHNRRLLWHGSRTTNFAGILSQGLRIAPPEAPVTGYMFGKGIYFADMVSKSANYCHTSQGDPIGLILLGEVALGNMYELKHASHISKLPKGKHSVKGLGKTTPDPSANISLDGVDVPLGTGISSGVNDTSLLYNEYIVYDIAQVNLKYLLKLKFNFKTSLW
Chain of human tankyrase 1 PARP catalytic domain, TNKS1P (O95271 1112-1317): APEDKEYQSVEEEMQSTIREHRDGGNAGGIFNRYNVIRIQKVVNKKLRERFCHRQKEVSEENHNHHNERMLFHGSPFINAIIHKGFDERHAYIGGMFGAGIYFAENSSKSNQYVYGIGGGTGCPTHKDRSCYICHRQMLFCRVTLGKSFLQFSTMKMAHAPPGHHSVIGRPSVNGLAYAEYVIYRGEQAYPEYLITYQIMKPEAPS

| SMILES | IC50 [1] [nM] | AC50 [2] [nM] | IC50 [3] [nM] | IC50 [4] [nM] | IC50 [5] [nM] | IC50 [6] [nM] | IC50 [7] [nM] |
| --- | --- | --- | --- | --- | --- | --- | --- |
| O=C(c1ccc(F)cc1)C1CCN(CC(=O)N(Cc2nc3c(c(=O)[nH]2)COCC3)C[C@H]2CCCO2)CC1 [Example 29, (R)-2-(4-(4-Fluorobenzoyl)piperidin-1-yl)-N-((4-oxo-4,5,7,8-tetrahydro-3H-pyrano[4,3-d]pyrimidin-2-yl)methyl)-N-((tetrahydrofuran-2-yl)methyl)acetamide] | 1430 | 990 ± 220 | > 19000 | 79 ± 80 | > 19000 | 148 ± 10 | 38 ± 1 |
| CC[C@H](C)N(Cc1nc2c(c(=O)[nH]1)COCC2)C(=O)CN1CCC(C(=O)c2ccc(F)cc2)CC1 [Example 31, (S)—N-sec-Butyl-2-(4-(4-fluorobenzoyl)piperidin-1-yl)-N-((4-oxo-4,5,7,8-tetrahydro-3H-pyrano[4,3-d]pyrimidin-2-yl)methyl)acetamide] | 630 ± 400 | 1100 ± 180 | > 19000 | 37 ± 9 | > 19000 | 38 ± 3 | 13 ± 1 |
| CC[C@@H](C)N(Cc1nc2c(c(=O)[nH]1)COCC2)C(=O)CN1CCC(C(=O)c2ccc(F)cc2)CC1 [Example 32, (R)—N-sec-Butyl-2-(4-(4-fluorobenzoyl)piperidin-1-yl)-N-((4-oxo-4,5,7,8-tetrahydro-3H-pyrano[4,3-d]pyrimidin-2-yl)methyl)acetamide] | 370 | 910 ± 150 | > 19000 | 49 ± 14 | > 19000 | 43 ± 2 | 13 ± 1 |
| CC(C)N(Cc1nc2c(c(=O)[nH]1)COCC2)C(=O)CN1CCC(C(=O)c2ccc(F)cc2)CC1 [Example 33, 2-(4-(4-Fluorobenzoyl)piperidin-1-yl)-N-isopropyl-N-((4-oxo-4,5,7,8-tetrahydro-3H-pyrano[4,3-d]pyrimidin-2-yl)methyl)acetamide] | 690 ± 100 | 2800 ± 1400 | > 19000 | 59 ± 20 | > 19000 | 95 ± 1 | 20 ± 1 |
| C[C@H](c1ccc(F)cc1)N(Cc1nc2c(c(=O)[nH]1)COCC2)C(=O)CN1CCC(C(=O)c2ccc(F)cc2)CC1 [Example 36, (R)-2-(4-(4-Fluorobenzoyl)piperidin-1-yl)-N-(1-(4-fluorophenyl)ethyl)-N-((4-oxo-4,5,7,8-tetrahydro-3H-pyrano[4,3-d]pyrimidin-2-yl)methyl)acetamide] | 2630 | 1850 ± 310 | > 19000 | 127 ± 47 | > 19000 | 104 ± 28 | 25 ± 7 |
| CC(c1ccc(F)cc1F)N(Cc1nc2c(c(=O)[nH]1)COCC2)C(=O)CN1CCC(C(=O)c2ccc(F)cc2)CC1 (centres unmarked) [Example 37, N-(1-(2,4-Difluorophenyl)ethyl)-2-(4-(4-fluorobenzoyl)piperidin-1-yl)-N-((4-oxo-4,5,7,8-tetrahydro-3H-pyrano[4,3-d]pyrimidin-2-yl)methyl)acetamide] | 510 | 960 ± 520 | > 19000 | 96 ± 19 | > 19000 | 155 ± 34 | 39.5 ± 7.8 |
| O=C(c1ccc(F)cc1)C1CCN(CC(=O)N(Cc2nc3c(c(=O)[nH]2)COCC3)Cc2ccccc2F)CC1 [Example 39, 2-(4-(4-Fluorobenzoyl)piperidin-1-yl)-N-(2-fluorobenzyl)-N-((4-oxo-4,5,7,8-tetrahydro-3H-pyrano[4,3-d]pyrimidin-2-yl)methyl)acetamide] | 230 ± 99 | 112 ± 18 | > 19000 | 17 ± 3 | > 19000 | 43 ± 1 | 9 ± 1 |
| O=C(c1ccc(F)cc1)C1CCN(CC(=O)N(Cc2nc3c(c(=O)[nH]2)COCC3)Cc2ccc(F)cc2F)CC1 [Example 40, N-(2,4-Difluorobenzyl)-2-(4-(4-fluorobenzoyl)piperidin-1-yl)-N-((4-oxo-4,5,7,8-tetrahydro-3H-pyrano[4,3-d]pyrimidin-2-yl)methyl)acetamide] | 520 ± 14 | 431 ± 40 | > 19000 | 28 ± 4 | > 19000 | 77 ± 5 | 14 ± 1 |
| C[C@H](C1CC1)N(Cc1nc2c(c(=O)[nH]1)COCC2)C(=O)CN1CCC(C(=O)c2ccc(F)cc2)CC1 [Example 41, (R)—N-(1-Cyclopropylethyl)-2-(4-(4-fluorobenzoyl)piperidin-1-yl)-N-((4-oxo-4,5,7,8-tetrahydro-3H-pyrano[4,3-d]pyrimidin-2-yl)methyl)acetamide] | 476 | 720 ± 150 | > 19000 | 32 ± 1.4 | > 19000 | 16 ± 1 | 32 ± 1 |
| C[C@@H](C1CC1)N(Cc1nc2c(c(=O)[nH]1)COCC2)C(=O)CN1CCC(C(=O)c2ccc(F)cc2)CC1 [Example 42, (S)—N-(1-Cyclopropylethyl)-2-(4-(4-fluorobenzoyl)piperidin-1-yl)-N-((4-oxo-4,5,7,8-tetrahydro-3H-pyrano[4,3-d]pyrimidin-2-yl)methyl)acetamide] | 290 | 589 ± 60 | > 19000 | 45.7 ± 4.9 | > 19000 | 42 ± 3 | 10 ± 1 |
| O=C(c1ccc(F)cc1)C1CCN(CC(=O)N(CCF)Cc2nc3c(c(=O)[nH]2)COCC3)CC1 [Example 44, 2-[4-(4-Fluoro-benzoyl)-piperidin-1-yl]-N-(2-fluoro-ethyl)-N-(4-oxo-3,5,7,8-tetrahydro-4H-pyrano[4,3-d]pyrimidin-2-ylmethyl)-acetamide] | 6400 | > 10000 | > 19000 | 1470 ± 360 | > 19000 | 72 ± 1.4 | 19 ± 1.4 |
| O=C(c1ccc(F)cc1)C1CCN(CC(=O)N(Cc2nc3c(c(=O)[nH]2)COCC3)CC(F)F)CC1 [Example 45, N-(2,2-Difluoro-ethyl)-2-[4-(4-fluoro-benzoyl)-piperidin-1-yl]-N-(4-oxo-3,5,7,8-tetrahydro-4H-pyrano[4,3-d]pyrimidin-2-ylmethyl)-acetamide] | 509 ± 47 | 450 ± 90 | > 19000 | 16 ± 9 | > 19000 | 37 ± 17 | 10.2 ± 7.4 |
| O=C(c1ccc(F)cc1)C1CCN(CC(=O)N(Cc2nc3c(c(=O)[nH]2)COCC3)CC(F)(F)F)CC1 [Example 48, 2-[4-(4-Fluoro-benzoyl)-piperidin-1-yl]-N-(4-oxo-3,5,7,8-tetrahydro-4H-pyrano[4,3-d]pyrimidin-2-ylmethyl)-N-(2,2,2-trifluoro-ethyl)-acetamide] | 790 ± 180 | 610 ± 240 | > 19000 | 14 ± 6 | > 19000 | 55 ± 3 | 14 ± 1 |
| CC(c1cccs1)N(Cc1nc2c(c(=O)[nH]1)COCC2)C(=O)CN1CCC(C(=O)c2ccc(F)cc2)CC1 (centres unmarked) [Example 49, 2-[4-(4-Fluoro-benzoyl)-piperidin-1-yl]-N-(4-oxo-3,5,7,8-tetrahydro-4H-pyrano[4,3-d]pyrimidin-2-ylmethyl)-N-(1-thiophen-2-yl-ethyl)-acetamide] | 170 | 86 ± 3 | > 19000 | 16 ± 4 | > 19000 | 47.5 ± 3.5 | 16.5 ± 0.7 |
| COc1ccc(C(=O)C2CCN(CC(=O)N(Cc3nc4c(c(=O)[nH]3)COCC4)CC(F)F)CC2)cc1 [Example 50, N-(2,2-Difluoro-ethyl)-2-[4-(4-methoxy-benzoyl)-piperidin-1-yl]-N-(4-oxo-3,5,7,8-tetrahydro-4H-pyrano[4,3-d]pyrimidin-2-ylmethyl)-acetamide] | 45 | 30 ± 6 | > 19000 | 9.5 ± 0.5 | > 19000 | 18 ± 7 | 12 ± 1 |
| COCCN(Cc1nc2c(c(=O)[nH]1)COCC2)C(=O)CN1CCC(C(=O)c2ccc(OC)cc2)CC1 [Example 54, 2-[4-(4-Methoxy-benzoyl)-piperidin-1-yl]-N-(2-methoxy-ethyl)-N-(4-oxo-3,5,7,8-tetrahydro-4H-pyrano[4,3-d]pyrimidin-2-ylmethyl)-acetamide] | 1840 | 1200 ± 100 | > 19000 | 91 ± 13 | > 19000 | 35 ± 6 | 14 ± 3 |
| COc1ccc(C(=O)C2CCN(CC(=O)NCc3nc4c(c(=O)[nH]3)COCC4)CC2)cc1 [Example 67, 2-(4-(4-Methoxybenzoyl)piperidin-1-yl)-N-((4-oxo-4,5,7,8-tetrahydro-3H-pyrano[4,3-d]pyrimidin-2-yl)methyl)acetamide] | 45 | 16 ± 3 | 10000 ± 3200 | 5.3 ± 4.1 | 3640 ± 630 | 28 ± 6 | 12 ± 2 |

From patent US9181266B2, “2-piperidin-1-yl-acetamide compounds for use as tankyrase inhibitors” (NOVARTIS AG, priority 2011, dated 2015)
